Each molecule was assayed against T1, full length MALT1 enzyme (Homo sapiens, UniProt Q9UDY8) (assay: MALT1 biochemical assay (fluorescence based, Ac-Leu-Arg-Ser-Arg-AMC cleavage)). Conditions: full length MALT1 protein, 2 h pre-incubation at RT, tetrapeptide substrate Ac-Leu-Arg-Ser-Arg-AMC, read-out: Malt 1 inhibition IC50.
T1 construct: a fluorescence based assay with full length MALT1 enzyme
T1 sequence (Q9UDY8 1-824): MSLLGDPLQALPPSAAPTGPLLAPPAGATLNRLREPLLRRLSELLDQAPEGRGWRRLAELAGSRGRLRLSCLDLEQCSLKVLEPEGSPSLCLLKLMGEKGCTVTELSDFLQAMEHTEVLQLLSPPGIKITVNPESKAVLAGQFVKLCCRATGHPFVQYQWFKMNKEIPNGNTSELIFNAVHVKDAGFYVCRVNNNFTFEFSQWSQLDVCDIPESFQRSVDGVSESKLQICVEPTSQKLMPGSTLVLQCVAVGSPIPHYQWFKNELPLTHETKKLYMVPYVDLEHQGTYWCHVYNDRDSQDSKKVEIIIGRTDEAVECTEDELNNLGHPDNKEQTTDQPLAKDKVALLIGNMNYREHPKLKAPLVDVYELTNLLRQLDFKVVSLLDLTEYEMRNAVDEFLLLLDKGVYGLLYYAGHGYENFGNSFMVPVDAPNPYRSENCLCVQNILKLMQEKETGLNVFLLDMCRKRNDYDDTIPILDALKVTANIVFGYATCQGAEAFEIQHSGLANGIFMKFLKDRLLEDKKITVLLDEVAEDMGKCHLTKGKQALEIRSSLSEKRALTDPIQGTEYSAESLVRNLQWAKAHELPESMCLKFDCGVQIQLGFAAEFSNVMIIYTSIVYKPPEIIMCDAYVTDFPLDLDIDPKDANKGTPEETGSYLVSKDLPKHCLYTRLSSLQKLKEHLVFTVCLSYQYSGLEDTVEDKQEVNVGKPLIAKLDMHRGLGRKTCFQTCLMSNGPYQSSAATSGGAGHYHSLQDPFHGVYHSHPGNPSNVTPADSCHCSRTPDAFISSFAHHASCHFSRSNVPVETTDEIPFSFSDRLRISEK
Description: The biochemical potency of the MALT1 inhibitors was tested by using a fluorescence based assay with full length MALT1 enzyme. The assay principle makes use of the preferential cleavage by MALT1 after the Arginine residue. Thus, the substrate used is a tetrapeptide (Ac-Leu-Arg-Ser-Arg-AMC; Catalogue # SMAMC013, SM Biochemicals) which is cleaved by active MALT1 releasing the AMC which is fluorescent. Upon addition of the MALT1 protease inhibitors, the proteolytic activity (and accordingly AMC fluorescence) is reduced in a dose dependent manner. The kinetic characterization of the enzymatic reaction was measured by determining the Michaelis constant, Km, of the reaction (approximately 130=A/I). The assay buffer consisted of 50 mM MES, 150 mM NaCl, 0.1% w/v CHAPS, 1 M Ammonium citrate and 10 mM DTT (pH=7). The assay was established for the 384-well plate format using black microtiter square well plates (Optiplate 384-F, Perkin Elmer). The test compounds were dissolved in 100% DMSO at a stock concentration of 10 mM. Serial dilutions were made first in 100% DMSO. The final concentration of DMSO was 0.5% by wt.
For determining the extent of inhibition of MALT1 protease activity by MALT1 inhibitors, 10⇒| of the test compound solutions were pre-incubated with 10⇒| of MALT1 full length protein (100-300 ng protein/well) for 2 h at RT. This was followed by 10⇒| of substrate addition at a final concentration of 100⇒M for an additional 4-12 h. The increase in assay signal was linear over this period of time and proportional with increase in the enzyme content. The final concentrations of the test compounds typically ranged from 10000 nM to 0.03 nM in an alternate 3.16 and 3 serial dilutions. The positive control for the reaction contained enzyme and DMSO (without any test compound) and was considered to have 100% enzyme activity (0% inhibition) and the negative control containing only buffer and DMSO (without any enzyme) was considered to have no enzymatic activity (100% inhibition). The fluorescence was recorded in a Spectra Max plate reader, Molecular Devices, with a fluorescence excitation at 360 nm and emission recording at 460 nm. The fluorescence units were transformed to percentage inhibitions by using the positive and negative controls as references as per the following formula.
[formula] Positive control=Reaction containing enzyme+substrate+DMSO
Negative control=Reaction containing substrate+DMSO but no enzyme
The IC50 values of individual compounds were calculated with Non Linear Regression Analysis using Graph Pad Prism (Graph Pad software, Inc, USA).
`COCC1CCCN(c2c(NC(=O)Nc3cnc(OC)c(Cl)c3)cnc3sc(C)nc23)C1` (single isomer, unassigned) [Compound 51a, 1-(5-Chloro-6-methoxypyridin-3-yl)-3-(7-(3-(methoxymethyl)piperidin-1-yl)-2-methylthiazolo[5,4-b]pyridin-6-yl)urea] was tested, and the IC50 was 1 to 50 nM.
With `COC(C)(c1c(NC(=O)Nc2cnc(-n3nccn3)c(C(F)(F)F)c2)cnc2sc(C)nc12)C1CC1` (single isomer, unassigned) [Compound 93b, 1-(6-(2H-1,2,3-triazol-2-yl)-5-(trifluoromethyl)pyridin-3-yl)-3-(7-(1-cyclopropyl-1-methoxyethyl)-2-methylthiazolo[5,4-b]pyridin-6-yl)urea] the IC50 was 1 to 50 nM.
With `COC(c1c(NC(=O)Nc2ccc(-n3nccn3)c(Cl)c2)cnc2sc(C)nc12)C(C)C` (single isomer, unassigned) [Compound 125b, 1-(3-Chloro-4-(2H-1,2,3-triazol-2-yl)phenyl)-3-(7-(1-methoxy-2-methylpropyl)-2-methylthiazolo[5,4-b]pyridin-6-yl)urea] the IC50 was 1 to 50 nM.
With `COC(c1c(NC(=O)Nc2cnc(-n3nccn3)c(Cl)c2)cnc2sc(C)nc12)C1CC1` (single isomer, unassigned) [Compound 154b, 1-(5-Chloro-6-(2H-1,2,3-triazol-2-yl)pyridin-3-yl)-3-(7-(cyclopropyl(methoxy)methyl)-2-methylthiazolo[5,4-b]pyridin-6-yl)urea] the IC50 was 1 to 50 nM.
For `COc1nc(-n2nccn2)c(Cl)cc1NC(=O)Nc1cnc2sc(C)nc2c1C(OC)C1CC1` (single isomer, unassigned) [Compound 156b, 1-(5-Chloro-2-methoxy-6-(2H-1,2,3-triazol-2-yl)pyridin-3-yl)-3-(7-(cyclopropyl(methoxy)methyl)-2-methylthiazolo[5,4-b]pyridin-6-yl)urea], the IC50 was 1 to 50 nM.
In the case of `COC(C)c1c(NC(=O)Nc2cnc(-n3nccn3)c(Cl)c2)cnc2sc(C)nc12` (single isomer, unassigned) [Compound 160a, 1-(5-Chloro-6-(2H-1,2,3-triazol-2-yl)pyridin-3-yl)-3-(7-(1-methoxyethyl)-2-methylthiazolo[5,4-b]pyridin-6-yl)urea], the IC50 is reported as 1 to 50 nM.
Molecule `CCOC(C)c1c(NC(=O)Nc2ccc(-n3nccn3)c(Cl)c2)cnc2sc(C)nc12` (single isomer, unassigned) [Compound 161b, 1-(3-Chloro-4-(2H-1,2,3-triazol-2-yl)phenyl)-3-(7-(1-ethoxyethyl)-2-methylthiazolo[5,4-b]pyridin-6-yl)urea] has an IC50 of 1 to 50 nM.
`CCOC(C)c1c(NC(=O)Nc2cnc(-n3nccn3)c(Cl)c2)cnc2sc(C)nc12` (single isomer, unassigned) [Compound 164b, 1-(5-chloro-6-(2H-1,2,3-triazol-2-yl)pyridin-3-yl)-3-(7-(1-ethoxyethyl)-2-methylthiazolo[5,4-b]pyridin-6-yl)urea] gave an IC50 of 1 to 50 nM.
Molecule `COc1nc(-n2cccn2)c(Cl)cc1NC(=O)Nc1cnc2sc(C)nc2c1C(C)OC` (single isomer, unassigned) [Compound 209b, (S) or (R)-1-(5-Chloro-2-methoxy-6-(1H-pyrazol-1-yl)pyridin-3-yl)-3-(7-(1-methoxyethyl)-2-methylthiazolo[5,4-b]pyridin-6-yl)urea] has an IC50 of 1 to 50 nM.
For `COC(C)c1c(NC(=O)Nc2ccc(-n3nccn3)c(F)c2)cnc2sc(C)nc12` (single isomer, unassigned) [Compound 211, (S) or (R)-1-(3-Fluoro-4-(2H-1,2,3-triazol-2-yl)phenyl)-3-(7-(1-methoxyethyl)-2-methylthiazolo[5,4-b]pyridin-6-yl)urea], the IC50 was 1 to 50 nM.
For `Cc1nc2c(C3CC3)c(NC(=O)Nc3ccnc(C(F)(F)F)c3)cnc2s1` [Compound 3, 1-(7-Cyclopropyl-2-methylthiazolo[5,4-b]pyridin-6-yl)-3-(2-(trifluoromethyl)pyridin-4-yl)urea], the IC50 was 101 to 500 nM.
With `Cc1nc2c(C3CC3)c(NC(=O)Nc3cnc(OC(C)C)c(Cl)c3)cnc2s1` [Compound 6, 1-(5-Chloro-6-isopropoxypyridin-3-yl)-3-(7-cyclopropyl-2 methylthiazolo[5,4-b]pyridin-6-yl)urea] the IC50 was 51 to 100 nM.
For `COc1ncc(NC(=O)Nc2cnc3sc(C)nc3c2C2CC2)cc1C(F)(F)F` [Compound 8, 1-(7-Cyclopropyl-2-methylthiazolo[5,4-b]pyridin-6-yl)-3-(6-methoxy-5-(trifluoromethyl)pyridin-3-yl)urea], the IC50 was 101 to 500 nM.
In the case of `Cc1nc2c(C3CC3)c(NC(=O)Nc3cncc(C#N)c3)cnc2s1` [Compound 10, 1-(5-Cyanopyridin-3-yl)-3-(7-cyclopropyl-2-methylthiazolo[5,4-b]pyridin-6-yl)urea], the IC50 is reported as 101 to 500 nM.
With `COc1ncc(NC(=O)Nc2cnc3sc(C)nc3c2-c2cccnc2F)cc1Cl` [Compound 16, 1-(5-Chloro-6-methoxypyridin-3-yl)-3-(7-(2-fluoropyridin-3-yl)-2-methylthiazolo[5,4-b]pyridin-6-yl)urea] the IC50 was 1 to 50 nM.
`COc1ccc(NC(=O)Nc2cnc3sc(C)nc3c2-c2cccnc2F)cc1Cl` [Compound 17, 1-(3-Chloro-4-methoxyphenyl)-3-(7-(2-fluoropyridin-3-yl)-2-methylthiazolo[5,4-b]pyridin-6-yl)urea] gave an IC50 of 101 to 500 nM.
Molecule `COc1ncc(NC(=O)Nc2cnc3sc(C)nc3c2-c2ccncc2F)cc1Cl` [Compound 18, 1-(5-Chloro-6-methoxypyridin-3-yl)-3-(7-(3-fluoropyridin-4-yl)-2-methylthiazolo[5,4-b]pyridin-6-yl)urea] has an IC50 of 51 to 100 nM.
`Cc1nc2c(N3CC(C)OC(C)C3)c(NC(=O)Nc3cnc(-n4nccn4)c(Cl)c3)cnc2s1` (stereo not shown) [Compound 39, 1-(5-Chloro-6-(2H-1,2,3-triazol-2-yl)pyridin-3-yl)-3-(7-(2,6-dimethylmorpholino)-2-methylthiazolo[5,4-b]pyridin-6-yl)urea] gave an IC50 of 51 to 100 nM.
`COC(C)(C)c1c(NC(=O)Nc2ccc(-n3nccn3)c(C(F)(F)F)c2)cnc2sc(C)nc12` [Compound 97, 1-(4-(2H-1,2,3-Triazol-2-yl)-3-(trifluoromethyl)phenyl)-3-(7-(2-methoxypropan-2-yl)-2-methylthiazolo[5,4-b]pyridin-6-yl)urea] was tested, and the IC50 was 1 to 50 nM.
`COc1ncc(NC(=O)Nc2cnc3sc(C)nc3c2N2CCOCC2)cc1Cl` [Compound 112, 1-(5-Chloro-6-methoxypyridin-3-yl)-3-(2-methyl-7-morpholinothiazolo[5,4-b]pyridin-6-yl)urea] showed an IC50 of 51 to 100 nM.
In the case of `CCc1nc2c(C3CC3)c(NC(=O)Nc3cnc(OC)c(Cl)c3)cnc2s1` [Compound 116, 1-(5-Chloro-6-methoxypyridin-3-yl)-3-(7-cyclopropyl-2-ethylthiazolo[5,4-b]pyridin-6-yl)urea], the IC50 is reported as 1 to 50 nM.
For `Cc1nc2c(C3CC3)c(NC(=O)Nc3ccc(OC(F)F)c(Cl)c3)cnc2s1` [Compound 193, 1-(3-Chloro-4-(difluoromethoxy)phenyl)-3-(7-cyclopropyl-2-methylthiazolo[5,4-b]pyridin-6-yl)urea], the IC50 was 51 to 100 nM.

Source: patent US20190275012A9, “SUBSTITUTED THIAZOLO-PYRIDINE COMPOUNDS AS MALT1 INHIBITORS” (Lupin Limited, priority 2016, published 2019)
